# Assays:
# [1] = test system: J774 macrophages; assay: Co-culture assay: Specific Chol Efflux from 3H-cholesterol-labeled J774 macrophages; type: cell-based, murine
# Text: (§1) Total Chol Efflux is the sum of co-culture medium counts plus hepatic counts, while Total Chol Uptake is defined as hepatic counts only. Both Chol Efflux and Chol Uptake are expressed as % of total counts in the system. Background values, corresponding to basal co-culture medium (without acceptors), can be subtracted from the corresponding values in presence of acceptors to obtain Specific Chol Efflux (%) and Specific Chol Uptake (%) values.
# (§2) Simultaneous Measurement of Cholesterol Flux Between Cholesterol-Loaded, ^3H-Cholesterol-Labeled J774 Cells and Target HepG2 Hepatocytes in a Transwell-Clear™ Insert.
# (§3) J774 cells were seeded at a density of 8,000 cells per cm^2 in 1 mL of Dulbecco's minimal essential medium (DMEM, high glucose) and supplemented with 10% fetal bovine serum (FBS) and 1% penicillin/streptomycin in standard 12-well (3.8 cm^2) flat bottom plates (Corning).
# (§4) Loaded plates were pre-incubated in an incubator at 37° C. with 5% CO2 for 30-45 min without cells in order to improve later cell attachment and maximize cell spreading on the insert membrane during cell culture. After pre-incubation, the media was removed. The wells of the Transwell plates were then filled with 1.5 mL of EMEM (low glucose) supplemented with 10% FBS and 1% penicillin/streptomycin and HepG2 cells were seeded at a density of 60,000 cells per cm^2 in 0.5 mL EMEM (low glucose) supplemented with 10% FBS and 1% penicillin/streptomycin on each insert.
# (§5) Following seeding in plates or inserts, both cell types were placed in a cell incubator at 37° C. filled with humidified air and 5% CO2 and incubated for 72 h.
# (§6) Following the 72-hour incubation and achieving a J774 cell confluence of 70-80%, the J774 cells were washed with 1 mL per well of PBS at 20° C. After the wash, 1 mL of Labeling Medium was added to each well. The Labeling Medium contained: 1% FBS, 1% penicillin/streptomycin, 2 μCi/mL of ^3H-cholesterol (Perkin-Elmer, NET139005MC), 50 μg protein/mL of acetylated LDL (acLDL) and DMEM (high glucose). The cells were then incubated for 24 hr at 37° C. in a cell incubator filled with humidified air and 5% CO2. One plate served as a reference to determine the labeled-cholesterol level in cells prior to co-culture assay.
# (§7) Following the 72-hour incubation, the culture medium was removed from HepG2 cells grown on the insert membrane and replaced with 2 mL of fresh EMEM (low glucose) supplemented with 10% FBS and 1% penicillin/streptomycin. The cells were then incubated for an additional 24 hours at 37° C. in an incubator filled with humidified air and 5% CO2.
# (§8) Following the 24-hour incubation of J774 cells, the labeling medium was removed from the plates and discarded. The cells were then washed with 1 mL of phosphate-buffered saline (PBS) at 20° C. and replaced with Equilibration Medium containing: DMEM (high glucose), 0.2% Bovine Serum Albumin (BSA) (low endotoxin, fatty acid-free, Sigma, cat. #A8806) and the appropriate Treatment under study. The J774 culture was then incubated for 24 hours.
# (§9) J774 cells ongoing the ^3H-cholesterol equilibration phase and/or HepG2 cells before co-culture can be treated by various means. Pharmacological agent is diluted in the appropriate culture medium with 0.2% BSA and vehicle (solvent) is tested in parallel. Modulation of gene expression is also accomplished at this step, by transfection of siRNA according to the manufacturer's protocol, and a control non-silencing RNA is tested in parallel.
# After 24 hour of incubation, equilibration medium from J774 culture and culture medium from HepG2 cells were discarded. Cells were washed with 1 mL (J774) or 2 mL (HepG2) of PBS at 20° C. and the wash medium discarded. Transwell inserts containing HepG2 cells were removed and transferred to each well containing the J774 culture. 2 mL of co-culture media (DMEM without phenol red, high glucose, 4.5 g/L) were added to each well. The resulting co-culture system was incubated in a cell incubator at 37° C. for 24 hours.
# [2] = test system: HepG2 hepatocytes; assay: Co-culture assay: Specific Chol Uptake into HepG2 hepatocytes on insert membrane; type: cell-based, human; conditions: for reduction of hepatic Specific Chol Uptake: 10 μM, HepG2 overnight and during co-culture
# Text: as §1, §2, §3
# as §4, with “Transwell-Clear™ 12-well plates (Corning, cat. #3642), each consisting of 12 cylindrical cell culture inserts (1.12 cm^2 insert/well) were bathed with 2 mL Eagle's minimal essential medium (EMEM, low glucose) distributed as follows: 0.5 mL in the insert and 1.5 mL in the well. Loaded” for “Loaded”
# as §5, §6, §7, §8, §9
# After 24 hour of incubation, equilibration medium from J774 culture and culture medium from HepG2 cells were discarded. Cells were washed with 1 mL (J774) or 2 mL (HepG2) of PBS at 20° C. and the wash medium discarded.
# [3] = J774 pre-treated overnight 10 μM, acceptors HS and DHS, vs vehicle DMSO
# [4] = 24 h co-culture, one-site non-linear regression
# [5] = purified acceptor, 24 h co-culture, one-site non-linear regression
# [6] = 10 nM in co-culture medium for 24 h, acceptor complete human serum
compound,measurement,setting,value
O=S(=O)(c1ccccc1)N(CC(F)(F)F)c1ccc(C(O)(C(F)(F)F)C(F)(F)F)cc1 [TO901317],effect on Specific Chol Efflux,[1]; [3],increased
same,effect on Specific Chol Uptake,[2]; [3],increased
CC[C@H](C)C(=O)O[C@H]1CCC=C2C=C[C@H](C)[C@H](CC[C@@H]3C[C@@H](O)CC(=O)O3)[C@H]21 [mevastatin],effect on Specific Chol Efflux,"[1]; HepG2 pre-treated overnight 25 μM, acceptor human serum",did not change
same,effect on Chol Efflux to human serum,"[1]; hepatocytes pre-treated 10 μM, acceptor human serum",no effect
same,effect on Specific Chol Uptake,"[2]; HepG2 pre-treated overnight 25 μM, acceptor apoB-depleted serum",reduced effect
same,effect on Specific Chol Uptake,"[2]; HepG2 pre-treated overnight 25 μM, acceptor complete human serum",significantly increased
same,effect on Chol Uptake,"[2]; hepatocytes pre-treated 10 μM, acceptor apoB-depleted serum, compared to complete serum",reduced effect
same,effect on hepatic Chol Uptake,"[2]; hepatocytes pre-treated 10 μM, acceptor complete human serum",increased
CCOC(=O)N1c2ccc(C(F)(F)F)cc2[C@@H](N(Cc2cc(C(F)(F)F)cc(C(F)(F)F)c2)C(=O)OC)C[C@H]1CC [torcetrapib],effect on Specific Efflux,"[1]; 10 μM, HepG2 overnight and during co-culture, acceptors HS and DHS",did not affect
same,reduction of hepatic Specific Chol Uptake,[2]; acceptor apoB-depleted serum,21%
same,reduction of hepatic Specific Chol Uptake,"[2]; acceptor apoB-depleted serum, listed as Torcetrapib",reduced
same,reduction of hepatic Specific Chol Uptake,[2]; acceptor complete serum,31%
same,reduction of hepatic Specific Chol Uptake,"[2]; acceptor complete serum, listed as Torcetrapib",reduced
"ApoA-I: human apolipoprotein A-I, purified, used as Chol acceptor","Bmax (maximal flux), Specific Efflux",[1]; [4],15.9 ± 0.9%
same,Specific Chol Efflux compared to LDL,"[1]; acceptor at 100 μg/ml, 24 h co-culture",higher
same,"kA (affinity constant), Specific Efflux",[1]; [5],7.2 ± 1.4 μg protein/mL
same,"Bmax (maximal flux), Specific Uptake",[2]; [4],0.83 ± 0.03%
same,"kA (affinity constant), Specific Uptake",[2]; [5],7.0 ± 1.0 μg protein/mL
PCSK9 D374Y: purified human PCSK9 gain-of-function D374Y mutant protein,effect on Specific Chol Efflux,[1]; [6],no effect
same,effect on Specific Chol Efflux,"[1]; 10 nM in co-culture medium for 24 h, acceptor complete human serum, listed as purified PCSK9 mutant",did not influence
same,effect on Specific Chol Uptake,[2]; [6],markedly reduced

# Source: US11840707B2, “Co-culture system and method for in vitro assessment of reverse cholesterol transport” (INSTITUT DE CARDIOLOGIE DE MONTREAL, priority 2016, dated 2023)
